According to paper PMC6935304 (International Journal of Nanomedicine, 2019):
Like-named read-outs stand apart in the source and are kept apart here.

Legend:
[1] = In vitro drug release by dialysis against PBS, HPLC; assay type: physicochemical; conditions: room temperature
[2] = system: CSE; assay: Immunoblot of CSE expression in hearts of heart failure rats; assay type: in vivo; conditions: rat heart, 6 weeks after myocardial infarction
[3] = system: plasma proteins; conditions: human; cited from earlier work
[4] = system: plasma proteins; conditions: rat; cited from earlier work
[5] = system: plasma proteins; conditions: dog; cited from earlier work

Time to release from the dialysis tubing [1]: ≤ 30 min
Substance: S-propargyl-cysteine [ZYZ-802]
CSE expression relative to HF group or DP-LP group [2]: 1.6 times
Binding rate to plasma proteins [3]: very low
Binding rate to plasma proteins [4]: very low
Binding rate to plasma proteins [5]: very low
